The source made the active and inactive calls. The calls are words filed in the database; no cut-off is given here.
Assays:
Tubulin (Homo sapiens) [1] = target: T1, Tubulin (Homo sapiens) (UniProt P68371+Q9H4B7+P0DPH7+P68366+Q13509+Q71U36+P04350+Q3ZCM7+P07437+P68363+Q9BQE3+Q6PEY2+Q13885+Q9BVA1+Q9BUF5); assay: Induction of microtubule distruption in human A549 cells assessed as occurence of cell shrinkage at 2.5 to 10 uM measured after 48 hrs by immunofluorescence based laser scanning confocal microscopic analysis; conditions: dose 2.5-10 µM
A549 [2] = assay: Induction of apoptosis in human A549 cells assessed as cleavage of PARP at 2.5 to 10 uM measured after 48 hrs by western blot analysis; format: functional, cell-based; conditions: dose 2.5-10 µM
HUVEC [3] = assay: Antivascular activity against HUVEC cells assessed as reduction in area covered by HUVECs measured after 6 hrs by imaging analysis; format: functional, cell-based; conditions: Homo sapiens, dose 0.25-1 µM
A549 [4] = assay: Induction of cell cycle arrest in human A549 cells assessed as accumulation of cells at G1 phase at 10 uM measured after 48 hrs by flow cytometry analysis (Rvb= 60.29%); format: functional
A549 [5] = assay: Induction of cell cycle arrest in human A549 cells assessed as accumulation of cells at S phase at 5 uM measured after 48 hrs by flow cytometry analysis (Rvb= 24.5%); format: functional
Danio rerio = species: Danio rerio; assay: Antiangiogenic activity in transgenic Tg(flk:EGFP) zebra fish embryos assessed as disruption of intersegmental vessels formation measured at 30 hrs post fertilization by confocal fluorescence microscopy analysis; format: functional, organism-based
Tubulin (Homo sapiens) [6] = target: T1, Tubulin (Homo sapiens); assay: Induction of microtubule distruption in human A549 cells assessed as disseminated microtubules in cytoplasm at 2.5 to 10 uM measured after 48 hrs by immunofluorescence based laser scanning confocal microscopic analysis; format: cell-based; conditions: dose 2.5-10 µM
A549 [7] = assay: Induction of apoptosis in human A549 cells assessed as live cells at 2.5 uM measured after 48 hrs by Annexin V-FITC/PI staining based flow cytometry analysis (Rvb= 97.1%); format: functional
HUVEC [8] = assay: Antiinvasive activity in HUVEC cells assessed as decrease in cell invasion at 0.25 to 1 uM measured after 48 hrs by crystal violet staining based transwell assay; format: functional; conditions: Homo sapiens, dose 0.25-1 µM
HeLa = assay: Antiproliferative activity against human HeLa cells assessed as reduction in cell viability measured after 72 hrs by MTT assay; format: functional, cell-based
A549 [9] = assay: Induction of cell cycle arrest in human A549 cells assessed as increase in number of cells accumulation at G2/M phase at 2.5 uM measured after 48 hrs by flow cytometry analysis (Rvb= 16.72%); format: functional
Tubulin (Homo sapiens) [10] = target: T1, Tubulin (Homo sapiens); assay: Induction of microtubule distruption in human A549 cells assessed as reduction in number of living cells at 2.5 to 10 uM measured after 48 hrs by immunofluorescence based laser scanning confocal microscopic analysis; format: cell-based; conditions: dose 2.5-10 µM
A549 [11] = assay: Induction of apoptosis in human A549 cells assessed as live cells at 10 uM measured after 48 hrs by Annexin V-FITC/PI staining based flow cytometry analysis (Rvb= 97.1%); format: functional
MGC-803 = assay: Antiproliferative activity against human MGC-803 cells assessed as reduction in cell viability measured after 72 hrs by MTT assay; format: functional, cell-based; conditions: MGC-803, 72 h
HUVEC [12] = assay: Inhibition of cell migration in HUVEC cells assessed as decrease in number of migrated endothelial cells at 0.25 to 1 uM measured after 48 hrs by crystal violet staining based transwell assay; format: functional; conditions: Homo sapiens, dose 0.25-1 µM
[13] = Intrinsic clearance in human liver microsome; format: ADME, microsomes; conditions: microsomes

## COc1ccc2c(c1)-c1occ(C)c1C(=O)C2=O
Tubulin (Homo sapiens) [1]
  Activity: Active
A549 [2]
  Activity: Active
HUVEC [3]
  Activity: Dose-Dependent Effect
A549 [4]
  Activity: 55.29%
A549 [5]
  Activity: 25.26%
Danio rerio
  Activity: Dose-Dependent Effect
Tubulin (Homo sapiens) [6]
  Activity: Active
A549 [7]
  Activity: 94.5%
HUVEC [8]
  Activity: Active
HeLa
  IC50: 280 nM
A549 [9]
  Activity: 17.41%
Tubulin (Homo sapiens) [10]
  Activity: Active
A549 [11]
  Activity: 11.1%
MGC-803
  IC50: 840 nM
HUVEC [12]
  inhibition: Active
[13]
  CLH: 175 µL/min/mg

Source: ChEMBL document CHEMBL4842345, “Design, synthesis and biological evaluation of tanshinone IIA-based analogues: Potent inhibitors of microtubule formation and angiogenesis” (Eur J Med Chem, 2021)
